# Target: T1, human CCR1 (Homo sapiens, UniProt P32246)
# T1 sequence (P32246 1-355): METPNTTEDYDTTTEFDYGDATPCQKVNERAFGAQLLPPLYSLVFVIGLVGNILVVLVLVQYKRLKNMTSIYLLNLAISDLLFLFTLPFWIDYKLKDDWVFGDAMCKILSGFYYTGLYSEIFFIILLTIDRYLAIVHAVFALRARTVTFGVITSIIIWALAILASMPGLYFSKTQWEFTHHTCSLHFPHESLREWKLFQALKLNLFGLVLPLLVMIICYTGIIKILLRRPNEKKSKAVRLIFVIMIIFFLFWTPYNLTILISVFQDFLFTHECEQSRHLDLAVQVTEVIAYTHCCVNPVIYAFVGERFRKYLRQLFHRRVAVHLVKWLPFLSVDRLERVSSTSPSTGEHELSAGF
# Assay: CCR1 binding protocol (SPA, [125I]-MIP-1α displacement)
# Details: cell membrane expressing human CCR1, 0.1 nM [125I]-MIP-1α, 4 hours at ambient temperature; read-out: Relative potency (IC50)
# Procedure, shortened: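 Displacement of 0.1 nM [125I]-MIP-1α (final) from membranes expressing human CCR1 was measured by scintillation proximity after 4 h at ambient temperature. Conditions: pH 7.4 Tris buffer with 0.1% BSA and MnCl, and 0.5 μg membrane per well. Compounds were tested as a 10-step ½-log series from a 10 mM DMSO stock to derive IC50.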
row,Structure (SMILES),IC50
1,Cc1nnc([C@H]2CCCN2C(=O)Nc2ccc(C(C)C)cc2C(F)(F)F)n1Cc1ccc(Cl)cc1 [Compound 278],< 0.05 µM
2,CC[C@H](NC(=O)N1CCC[C@@H]1c1nnc(C)n1Cc1ccc(Cl)cc1)c1cc2cc(C(F)(F)F)ccc2o1 [Compound 280],< 0.05 µM
3,Cc1nnc([C@H]2CCCN2C(=O)Nc2cc(C(=O)O)ccc2F)n1Cc1ccc(Cl)cc1 [Compound 282],0.5 to 5 µM
4,CC(=O)N1CCC[C@@H](NC(=O)N2CCC[C@@H]2c2nnc(C)n2Cc2ccc(Cl)cc2)C1 [Compound 283],0.05 to 0.5 µM
5,COC(=O)c1ccc(F)c(NC(=O)N2CCC[C@@H]2c2nnc(C)n2Cc2ccc(Cl)cc2)c1 [Compound 284],< 0.05 µM
6,CC[C@@H](NC(=O)N1CCC[C@@H]1c1nnc(C)n1Cc1ccc(Cl)cc1)c1ccccc1 [Compound 285],< 0.05 µM
7,COC(=O)c1ccc(Cl)c(NC(=O)N2CCC[C@@H]2c2nnc(C)n2Cc2ccc(Cl)cc2)c1 [Compound 286],< 0.05 µM
8,Cc1nnc([C@H]2CCCN2C(=O)Nc2cc(C(N)=O)ccc2F)n1Cc1ccc(Cl)cc1 [Compound 294],0.05 to 0.5 µM
9,Cc1nnc([C@H]2CCCN2C(=O)Nc2cc(C(=O)O)ccc2Cl)n1Cc1ccc(Cl)cc1 [Compound 298],0.5 to 5 µM
10,CNC(=O)c1ccc(F)c(NC(=O)N2CCC[C@@H]2c2nnc(C)n2Cc2ccc(Cl)cc2)c1 [Compound 301],0.05 to 0.5 µM
11,Cc1nnc([C@H]2CCCN2C(=O)Nc2cc(C(=O)N(C)C)ccc2F)n1Cc1ccc(Cl)cc1 [Compound 302],0.05 to 0.5 µM
12,Cc1nnc([C@H]2CCCN2C(=O)N[C@@H](C)c2cc3cc(Cl)ccc3o2)n1Cc1ccc(Cl)cc1 [Compound 307],< 0.05 µM
13,O=C(N[C@H]1CCOc2cc(C(F)(F)F)ccc21)N1CCC[C@@H]1c1nnc(CO)n1Cc1ccc(Cl)cc1 [Compound 308],< 0.05 µM
14,O=C(Nc1ccc(Cl)cc1F)N1CCC[C@@H]1c1nnc(CO)n1Cc1ccc(Cl)cc1 [Compound 310],0.05 to 0.5 µM
15,CCc1nnc([C@H]2CCCN2C(=O)NCc2ccc(C(F)(F)F)cc2)n1Cc1ccc(Cl)cc1 [Compound 311],0.05 to 0.5 µM
16,O=C(NCc1ccc(C(F)(F)F)cc1)N1CCC[C@@H]1c1nnc(CO)n1Cc1ccc(Cl)cc1 [Compound 312],< 0.05 µM

row,Structure (SMILES),IC50
1,O=C(NCc1ccc(Cl)cc1Cl)N1CCC[C@@H]1c1nnc(CO)n1Cc1ccc(Cl)cc1 [Compound 313],< 0.05 µM
2,CC[C@H](NC(=O)N1CCC[C@@H]1c1nnc(C)n1Cc1ccc(Cl)cc1)c1ccc(C(F)(F)F)c(F)c1 [Compound 314],0.05 to 0.5 µM
3,CNC(=O)c1ccc(Cl)c(NC(=O)N2CCC[C@@H]2c2nnc(C)n2Cc2ccc(Cl)cc2)c1 [Compound 315],0.05 to 0.5 µM
4,COC(=O)c1ccc(C(F)(F)F)c(NC(=O)N2CCC[C@@H]2c2nnc(C)n2Cc2ccc(Cl)cc2)c1 [Compound 317],0.05 to 0.5 µM
5,Cc1ccc(C(C)(C)NC(=O)N2CCC[C@@H]2c2nnc(C)n2Cc2ccc(Cl)cc2)cc1 [Compound 322],< 0.05 µM
6,Cc1nnc([C@H]2CCCN2C(=O)Nc2ccc(S(C)(=O)=O)cc2)n1Cc1ccc(Cl)cc1 [Compound 330],0.05 to 0.5 µM
7,Cc1nnc([C@H]2CCCN2C(=O)Nc2ccc(S(C)(=O)=O)cc2Cl)n1Cc1ccc(Cl)cc1 [Compound 331],0.05 to 0.5 µM
8,Cc1nnc([C@H]2CCCN2C(=O)Nc2cc(C(N)=O)ccc2Cl)n1Cc1ccc(Cl)cc1 [Compound 332],0.05 to 0.5 µM
9,Cc1nnc([C@H]2CCCN2C(=O)Nc2cccc(S(C)(=O)=O)c2)n1Cc1ccc(Cl)cc1 [Compound 334],0.5 to 5 µM
10,Cc1nnc([C@H]2CCCN2C(=O)Nc2cc(C(=O)O)ccc2C(F)(F)F)n1Cc1ccc(Cl)cc1 [Compound 335],0.5 to 5 µM
11,Cc1nnc([C@H]2CCCN2C(=O)N[C@H]2CCOc3cc(C(F)(F)F)ccc32)n1Cc1cccc(Cl)c1 [Compound 336],0.5 to 5 µM
12,Cc1nnc([C@H]2CCCN2C(=O)N[C@H]2CCOc3cc(C(F)(F)F)ccc32)n1[C@@H](C)c1ccc(Cl)cc1 [Compound 337],0.05 to 0.5 µM
13,N#Cc1ccc2c(c1)OCC[C@@H]2NC(=O)N1CCC[C@@H]1c1nnc(CO)n1Cc1ccc(Cl)cc1 [Compound 338],< 0.05 µM
14,N#Cc1ccc2c(c1)OCC[C@H]2NC(=O)N1CCC[C@@H]1c1nnc(CO)n1Cc1ccc(Cl)cc1 [Compound 340],< 0.05 µM
15,Cc1cc(NC(=O)N2CCC[C@@H]2c2nnc(C)n2Cc2ccc(Cl)cc2)n(-c2ccccc2)n1 [Compound 341],< 0.05 µM
16,Cc1nnc([C@H]2CCCN2/C(=N\C#N)N[C@H]2CCOc3cc(C#N)ccc32)n1Cc1ccc(Cl)cc1 [Compound 345],0.05 to 0.5 µM

# Results, then the compound that gave them:
row,IC50,Structure (SMILES)
1,0.05 to 0.5 µM,CNC(=O)c1cc(C)ccc1NC(=O)N1CCC[C@@H]1c1nnc(C)n1Cc1ccc(Cl)cc1 [Compound 279]
2,< 0.05 µM,Cc1cccnc1NC(=O)N1CCC[C@@H]1c1nnc(C)n1Cc1ccc(Cl)cc1 [Compound 281]
3,< 0.05 µM,CCc1noc(CC)c1NC(=O)N1CCC[C@@H]1c1nnc(C)n1Cc1ccc(Cl)cc1 [Compound 287]
4,< 0.05 µM,Cc1cccc(-c2noc(C)c2NC(=O)N2CCC[C@@H]2c2nnc(C)n2Cc2ccc(Cl)cc2)c1 [Compound 288]
5,< 0.05 µM,CCc1noc(C)c1NC(=O)N1CCC[C@@H]1c1nnc(C)n1Cc1ccc(Cl)cc1 [Compound 290]
6,< 0.05 µM,Cc1onc(-c2ccccc2F)c1NC(=O)N1CCC[C@@H]1c1nnc(C)n1Cc1ccc(Cl)cc1 [Compound 291]
7,0.05 to 0.5 µM,COC1CCC(NC(=O)N2CCC[C@@H]2c2nnc(C)n2Cc2ccc(Cl)cc2)CC1 (some centres unmarked) [Compound 292]
8,< 0.05 µM,Cc1onc(-c2ccc(Cl)cc2)c1NC(=O)N1CCC[C@@H]1c1nnc(C)n1Cc1ccc(Cl)cc1 [Compound 293]
9,0.05 to 0.5 µM,Cc1ccc(NC(=O)N2CCC[C@@H]2c2nnc(C)n2Cc2ccc(Cl)cc2)c(C(=O)N(C)C)c1 [Compound 295]
10,< 0.05 µM,Cc1cc(C)c(NC(=O)N2CCC[C@@H]2c2nnc(C)n2Cc2ccc(Cl)cc2)c(C)n1 [Compound 296]
11,< 0.05 µM,Cc1onc(-c2ccc(F)cc2)c1NC(=O)N1CCC[C@@H]1c1nnc(C)n1Cc1ccc(Cl)cc1 [Compound 297]
12,0.05 to 0.5 µM,Cc1cnccc1NC(=O)N1CCC[C@@H]1c1nnc(C)n1Cc1ccc(Cl)cc1 [Compound 299]
13,0.05 to 0.5 µM,Cc1cc(C(N)=O)ccc1NC(=O)N1CCC[C@@H]1c1nnc(C)n1Cc1ccc(Cl)cc1 [Compound 300]
14,< 0.05 µM,COc1ccc(-c2noc(C)c2NC(=O)N2CCC[C@@H]2c2nnc(C)n2Cc2ccc(Cl)cc2)cc1 [Compound 303]
15,< 0.05 µM,Cc1onc(-c2ccncc2)c1NC(=O)N1CCC[C@@H]1c1nnc(C)n1Cc1ccc(Cl)cc1 [Compound 304]
16,0.5 to 5 µM,CCOC1CCC(NC(=O)N2CCC[C@@H]2c2nnc(C)n2Cc2ccc(Cl)cc2)CC1 (some centres unmarked) [Compound 305]
17,< 0.05 µM,Cc1onc(-c2cccnc2)c1NC(=O)N1CCC[C@@H]1c1nnc(C)n1Cc1ccc(Cl)cc1 [Compound 306]
18,< 0.05 µM,Cc1noc(-c2ccccc2)c1NC(=O)N1CCC[C@@H]1c1nnc(CO)n1Cc1ccc(Cl)cc1 [Compound 309]

row,IC50,Structure (SMILES)
1,< 0.05 µM,Cc1ccnc(C)c1NC(=O)N1CCC[C@@H]1c1nnc(C)n1Cc1ccc(Cl)cc1 [Compound 316]
2,< 0.05 µM,COC(=O)c1cc(NC(=O)N2CCC[C@@H]2c2nnc(C)n2Cc2ccc(Cl)cc2)c(C)cc1C [Compound 318]
3,0.05 to 0.5 µM,Cc1noc(C)c1N/C(=N/C#N)N1CCC[C@@H]1c1nnc(C)n1Cc1ccc(Cl)cc1 [Compound 319]
4,< 0.05 µM,Cc1nn(C)c(C)c1NC(=O)N1CCC[C@@H]1c1nnc(C)n1Cc1ccc(Cl)cc1 [Compound 320]
5,0.05 to 0.5 µM,Cc1nnc([C@H]2CCCN2C(=O)Nc2ccc3nonc3c2)n1Cc1ccc(Cl)cc1 [Compound 321]
6,0.05 to 0.5 µM,Cc1noc(C)c1NC(=O)N1CCC[C@@H]1c1nnc(CO)n1Cc1ccc(Cl)cc1 [Compound 323]
7,0.05 to 0.5 µM,Cc1noc(C)c1NC(=O)N1CCC[C@@H]1c1nnc(C)n1C1(c2ccc(Cl)cc2)CC1 [Compound 324]
8,0.05 to 0.5 µM,Cc1nnc([C@H]2CCCN2C(=O)Nc2ccc(Cl)cc2F)n1C1(c2ccc(Cl)cc2)CC1 [Compound 325]
9,< 0.05 µM,Cc1nc(C)c(NC(=O)N2CCC[C@@H]2c2nnc(C)n2Cc2ccc(Cl)cc2)c(C)n1 [Compound 326]
10,0.05 to 0.5 µM,Cc1nnc([C@H]2CCCN2C(=O)Nc2ccc3c(c2)N(C)C(=O)CO3)n1C1(c2ccc(Cl)cc2)CC1 [Compound 327]
11,0.05 to 0.5 µM,Cc1nnc([C@H]2CCCN2C(=O)N[C@H]2CCOc3cc(C(F)(F)F)ccc32)n1C1(c2ccc(Cl)cc2)CC1 [Compound 328]
12,0.05 to 0.5 µM,Cc1nnc([C@H]2CCCN2C(=O)NC2(c3ccccc3)CC2)n1C1(c2ccc(Cl)cc2)CC1 [Compound 329]
13,0.5 to 5 µM,Cc1nnc([C@H]2CCCN2C(=O)NC2CCOCC2)n1Cc1ccc(Cl)cc1 [Compound 333]
14,0.5 to 5 µM,Cc1nnc([C@H]2CCCN2C(=O)Nc2ccc3c(c2)OCC(=O)N3C)n1Cc1ccc(Cl)cc1 [Compound 339]
15,0.5 to 5 µM,Cc1nnc([C@H]2CCCN2C(=O)Nc2ccc(Cl)cc2F)n1[C@@H](C)c1ccc(Cl)cc1 [Compound 342]
16,0.05 to 0.5 µM,Cc1nnc([C@H]2CCCN2C(=O)N[C@@H](C)C(C)C)n1Cc1ccc(Cl)cc1 [Compound 343]
17,0.5 to 5 µM,Cc1nnc([C@H]2CCCN2C(=O)Nc2ncc(Cl)cn2)n1Cc1ccc(Cl)cc1 [Compound 344]
18,0.05 to 0.5 µM,Cc1cc(C)c(C(=O)O)cc1NC(=O)N1CCC[C@@H]1c1nnc(C)n1Cc1ccc(Cl)cc1 [Compound 346]
